Molecular target: T1, microsomal prostaglandin E2 synthase-1 (mPGES-1) (Homo sapiens, UniProt O14684)
T1 sequence (O14684 1-152): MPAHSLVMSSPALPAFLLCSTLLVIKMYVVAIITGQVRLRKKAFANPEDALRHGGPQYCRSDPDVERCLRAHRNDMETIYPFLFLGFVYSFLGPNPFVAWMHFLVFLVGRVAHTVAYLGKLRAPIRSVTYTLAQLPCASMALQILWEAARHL
Test: cell-free mPGES-1 activity assay in A549 microsomes, […] inhibition at […]
Format: cell-based
Settings: A549, read-out: % inhibition at 10 μM

Q: With `CC(C)c1ccc2c(c1)c(SC(C)(C)C)c(CC(C)(C)C(=O)O)n2Cc1ccc(Cl)cc1` [MK-886, 3-[1-(4-chlorobenzyl)-3-t-butylthio-5-isopropylindol-2-yl]-2,2-dimethylpropanoic acid] as the compound, how does the inhibition at 10 µM read?
A: The inhibition at 10 µM was 74.5 ± 1.5%.

Source: paper PMC3523389 (The Journal of pharmacology and experimental therapeutics, 2012)
